The term viability, T/C denotes the ratio of treated to control. What is called IC50 is the concentration at which inhibition is half-maximal.

In this assay the test system is 958667-338-R-J2-PDC tumor spheroids viability. As to the kind of experiment: Anticancer human tumor 958667-338-R-J2-PDC patient-derived colon adenocarcinoma cell line growth inhibition [PI3K]. The note with it: spheroids with HUVEC and MSC; for viability, T/C: stronger effect = lower value. From the text:
Combinatorial screen of targeted agents with the PI3K inhibitors inavolisib, alpelisib, duvelisib, and copanlisib in multi-cell type tumor spheroids
A high-throughput screen of multi-cell type tumor spheroids was designed to identify active combinations of targeted small molecules and PI3K pathway inhibitors. Complex spheroids include a stromal component modeled by human endothelial cells (HUVEC) and fibroblasts modeled by human mesenchymal stem cells (MSCs). The concentration ranges selected for each drug and investigational agent were based upon clinically achievable concentrations if the clinical Cmax of the agent was known.
Compounds. The drugs and investigational agents: inavolisib (NSC800729), alpelisib (NSC765974), duvelisib (NSC772469), copanlisib (NSC816437), ipatasertib (NSC767898), afuresertib (NSC778305), talazoparib (NSC767125), sapanisertib (NSC764658), selumetinib (NSC741078), tovorafenib (DAY101, NSC766906), vemurafenib (NSC761431), ravoxertinib (NSC781343), sotorasib (NSC818433), MRTX1133 (NSC 836407), abemaciclib (NSC 768073), palbociclib (NSC758247), venetoclax (NSC 766270), SY5609 (NSC837396), enzalutamide (NSC755605), and darolutamide (NSC825331), were obtained from the National Cancer Institute (NCI) Developmental Therapeutics Program Chemical Repository. The FDA-approved anticancer drug set is available from the NCI Developmental Therapeutics Program. […] The stock solutions were prepared in dimethyl sulfoxide (DMSO, Sigma-Aldrich, St. Louis, MO, cat. D2650) at 800-fold the tested concentration and stored at -70 degrees C prior to their use. All drugs and investigational agents were tested over a range starting from a high concentration at or near the clinical Cmax and decreasing in half-log increments. If the clinical Cmax for an agent had not been determined, the highest concentration tested was 10 microM.
Cell Culture. All cells were maintained in an incubator at 37 degrees C and 5% CO2 with 95% humidity. The PDC lines were cultured according to standard operating procedures established by the NCI PDMR (https://pdmr.cancer.gov/sops/default.htm). All PDCs were thawed and cultured in Matrigel-coated flasks prepared with a working solution of 1X Ham's F-12 nutrient mix, without supplementation (Invitrogen, Waltham, MA, cat. 11765054), 100 U/mL penicillin-streptomycin (Invitrogen, cat. 15140122), and 2.5% Matrigel (Corning Inc., Corning, NY, cat. 354248) for the first three passages. The 354836-022-R-J1-PDC, 475296-252-R-J1-PDC, and 997726-040-R-J2-PDC lines were cultured in 6A media, which includes advanced DMEM/F-12 (Thermo Fisher Scientific, cat. 12634028), 10 mM HEPES (Thermo Fisher Scientific, cat. 15630080), 1X GlutaMAX supplement (Thermo Fisher Scientific, cat. 35050061), 0.1 mg/mL primocin (InvivoGen, San Diego, CA, cat. ant-pm-2), 10% defined fetal bovine serum, heat inactivated (HyClone Laboratories Inc., Logan, UT, cat. SH30070.03HI), 50% L-WRN conditioned media (ATCC, cat. CRL-3276), 1.25 mM N-Acetyl-L-cysteine (Sigma-Aldrich, cat. A9165), 10 mM nicotinamide (Sigma-Aldrich, cat. N0636), 1X B-27 supplement (Thermo Fisher Scientific, cat. 17504044), 1X N-2 supplement (Thermo Fisher Scientific, cat. 17502048), and 10 microM Y-27632 dihydrochloride (Tocris Bioscience, Bristol, United Kingdom, cat. 1254). The 624824-186-R-J2-PDC line was cultured in 6C/Colon 1B media, which includes all 6A media components plus 50 ng/mL human EGF recombinant protein (Thermo Fisher Scientific, cat. PHG0311). […]

Where [1] appears, read: compound alone, run of 06/13/2023.

Where “and” joins values, the source holds several entries; their conditions need not be identical. Equal values may be shown once.
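Further: spheroids exposed to compounds for seven days before readout.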

Take `C#Cc1c(F)ccc2cc(O)cc(-c3ncc4c(N5CC6CCC(C5)N6)nc(OCC56CCCN5CC(F)C6)nc4c3F)c12` (stereo unspecified): the viability, T/C reads like this: (compound 0.0316 µM) 98.5% [middle of 4 runs]; (compound 0.1 µM) 103% [middle of 4 runs]; (compound 0.316 µM) 101% [middle of 4 runs]; (compound 1 µM) 97.3% [middle of 4 runs]; (compound 3.16 µM) 86.7% [middle of 4 runs]; (compound 10 µM) 63.8% [middle of 4 runs]. Moreover, for the setting “curve of compound”, the half-inhibitory concentration (IC50) was greater than 10 µM.

As to `CC(=O)c1c(C)c2cnc(Nc3ccc(N4CCNCC4)cn3)nc2n(C2CCCC2)c1=O`, the viability, T/C is 110% [middle of 4 runs] (compound 0.000316 µM); 107% [middle of 4 runs] (compound 0.00316 µM); 109% (2×) and 88% and 111% (compound 0.01 µM); 99.5% and 114% (2×) and 106% (compound 0.0316 µM); 93.8% [middle of 4 runs] (compound 0.1 µM). Also, the IC50 (curve of compound) is greater than 0.1 µM.

On to `CC(C)NCC(C(=O)N1CCN(c2ncnc3c2C(C)CC3O)CC1)c1ccc(Cl)cc1` (stereo unspecified), for which the viability, T/C is, setting by setting: (compound 0.0316 µM) 99.2% and 102% and 101%; (compound 0.1 µM) 92.6% and 114% and 87.9%; (compound 0.316 µM) 101% and 113% and 108%; (compound 1 µM) 78.6% and 73.4% and 101%; (compound 3.16 µM) 78.8% and 72.3% and 119%; (compound 10 µM) 72.2% and 69.7% and 80.9%. Further, the half-maximal inhibitory concentration (IC50) (curve of compound) is greater than 10 µM.

With `CC(C)n1nc(-c2ccc3oc(N)nc3c2)c2c(N)ncnc21`, the viability, T/C by setting is: (compound 0.000316 µM) 93.8% [middle of 4 runs]; (compound 0.001 µM) 97.1% [middle of 4 runs]; (compound 0.01 µM) 94.7% [middle of 4 runs]; (compound 0.0316 µM) 72.6% [middle of 4 runs]; (compound 0.1 µM) 44.5% [middle of 4 runs]. For the same compound, where the note is “curve of compound”, the IC50 is 80.6 nM [middle of 4 runs].

Consider `CC(Cn1ccc(-c2ccc(C#N)c(Cl)c2)n1)NC(=O)c1cc(C(C)O)[nH]n1` (stereo unspecified), for which the viability, T/C was 105% [middle of 4 runs] (compound 0.0316 µM); 92.6% [middle of 4 runs] (compound 0.1 µM); 111% [middle of 4 runs] (compound 0.316 µM); 104% [middle of 4 runs] (compound 1 µM); 107% [middle of 4 runs] (compound 3.16 µM); 89.4% [middle of 4 runs] (compound 10 µM). Moreover, the IC50 (curve of compound) is greater than 10 µM.

On to `CC(Nc1ccc2c(c1)OCCn1cc(N3C(=O)OCC3C(F)F)nc1-2)C(N)=O` (stereo unspecified), for which the viability, T/C was 100% [middle of 7 runs] (compound 0.01 µM); 96.9% [middle of 7 runs] (compound 0.0316 µM); 80.8% [middle of 7 runs] (compound 0.1 µM); 70.7% [middle of 7 runs] (compound 0.316 µM); 64.9% [middle of 7 runs] (compound 1 µM). Also, the half-maximal inhibitory concentration (IC50) (compound alone, run of 06/12/2023) was greater than 1 µM.

Regarding `CC(Nc1ncnc2nc[nH]c12)c1cc2cccc(Cl)c2c(=O)n1-c1ccccc1` (stereo unspecified), the viability, T/C (compound 0.1 µM) is 93.8% [middle of 8 runs]; the viability, T/C (compound 1 µM) was 90.8% [middle of 8 runs]; the viability, T/C (compound 10 µM) is 92.9% [middle of 8 runs]. Under setting [1], the concentration for half-maximal inhibition (IC50) was greater than 10 µM.

With `CC1(C)CCC(Nc2ncc(C(F)(F)F)c(-c3c[nH]c4c(P(C)(C)=O)c(C#N)ccc34)n2)CN1` (stereo unspecified), the viability, T/C (compound 0.0316 µM) is 97.9% [middle of 4 runs]; the viability, T/C (compound 1 µM) is 66.5% [middle of 4 runs]; the viability, T/C (compound 3.16 µM) is 64.5% [middle of 4 runs]; the viability, T/C (compound 10 µM) was 36.4% [middle of 4 runs]. In addition, the half-maximal inhibitory concentration (IC50) (curve of compound) was 5.09 µM [middle of 4 runs].

For `CCN1CCN(Cc2ccc(Nc3ncc(F)c(-c4cc(F)c5nc(C)n(C(C)C)c5c4)n3)nc2)CC1`, the viability, T/C (compound 0.00316 µM) was 108% and 102% and 109%; the viability, T/C (compound 0.01 µM) was 86.7% and 90.8% and 95.2%; the viability, T/C (compound 0.0316 µM) was 91% and 87.5% and 98.1%; the viability, T/C (compound 0.1 µM) was 72.1% and 75.9% and 98.9%; the viability, T/C (compound 0.316 µM) is 78.8% and 76.1% and 79.7%; the viability, T/C (compound 1 µM) is 74.5% and 70.1% and 72.5%. Moreover, for the setting “curve of compound”, the concentration for half-maximal inhibition (IC50) is greater than 1 µM.

On to `CNC(=O)c1ccc(N2C(=S)N(c3ccc(C#N)c(C(F)(F)F)c3)C(=O)C2(C)C)cc1F`, for which the viability, T/C (compound 0.0316 µM) was 110% [middle of 4 runs]; the viability, T/C (compound 0.1 µM) was 97% [middle of 4 runs]; the viability, T/C (compound 1 µM) was 112% and 103% (2×) and 100%; the viability, T/C (compound 3.16 µM) was 95.8% and 104% and 124% (2×); the viability, T/C (compound 10 µM) is 103% (2×) and 115% and 88.7%. Further, the concentration for half-maximal inhibition (IC50) (curve of compound) was greater than 10 µM.

For the compound `COc1c(OCCCN2CCOCC2)ccc2c3n(c(=NC(=O)c4cnc(N)nc4)nc12)CCN3`, the viability, T/C reads like this: (compound 0.00316 µM) 92.6% [middle of 8 runs]; (compound 0.0316 µM) 71.9% [middle of 8 runs]; (compound 0.1 µM) 54% [middle of 8 runs]; (compound 0.316 µM) 38.8% [middle of 8 runs]; (compound 1 µM) 18.2% [middle of 8 runs]. Also, under setting [1], the half-maximal inhibitory concentration (IC50) is 147 nM [middle of 8 runs].

Turning to `C[C@@H](NC(=O)c1ncnc(N)c1Cl)c1ncc(C(=O)Nc2cc(C(F)(F)F)c(Cl)cn2)s1`, the viability, T/C (compound 0.0316 µM) is 104% [middle of 4 runs]; the viability, T/C (compound 0.1 µM) is 103% [middle of 4 runs]; the viability, T/C (compound 0.316 µM) was 106% [middle of 4 runs]; the viability, T/C (compound 3.16 µM) is 95.3% [middle of 4 runs]; the viability, T/C (compound 10 µM) is 98.6% [middle of 4 runs]. In addition, the concentration for half-maximal inhibition (IC50) (curve of compound) was greater than 10 µM.

As for `Cn1cnc2c(F)c(Nc3ccc(Br)cc3Cl)c(C(=O)NOCCO)cc21`, the viability, T/C was 96.5% [middle of 4 runs] (compound 0.00949 µM); 85.5% [middle of 4 runs] (compound 0.0949 µM); 54.2% [middle of 4 runs] (compound 0.3 µM); 35.9% [middle of 4 runs] (compound 0.949 µM); 20.5% [middle of 4 runs] (compound 3 µM). Besides, the IC50 (curve of compound) was 377 nM [middle of 4 runs].

Turning to `Cn1ncc(Cl)c1-c1cc(C(=O)NC(CN)Cc2cccc(F)c2)sc1Cl` (stereo unspecified), the viability, T/C was 94.3% [middle of 4 runs] (compound 0.0316 µM); 92.4% [middle of 4 runs] (compound 0.1 µM); 91.9% [middle of 4 runs] (compound 0.316 µM); 74.7% [middle of 4 runs] (compound 1 µM); 53.8% [middle of 4 runs] (compound 3.16 µM); 39.3% [middle of 4 runs] (compound 10 µM).

For `Cn1nccc1Nc1nccc(-c2ccn(C(CO)c3ccc(Cl)c(F)c3)c(=O)c2)n1` (stereo unspecified), the viability, T/C was 102% [middle of 4 runs] (compound 0.0316 µM), 95.4% [middle of 4 runs] (compound 0.316 µM), 86.6% [middle of 4 runs] (compound 1 µM) and 89.5% [middle of 4 runs] (compound 3.16 µM). Where the note is “curve of compound”, the IC50 is greater than 10 µM.

On to `Cn1ncnc1[C@H]1c2n[nH]c(=O)c3cc(F)cc(c23)N[C@@H]1c1ccc(F)cc1`, for which the viability, T/C by setting is: (compound 0.000316 µM) 115% [middle of 4 runs]; (compound 0.001 µM) 110% [middle of 4 runs]; (compound 0.00316 µM) 97.5% [middle of 4 runs]; (compound 0.0316 µM) 103% [middle of 4 runs]; (compound 0.1 µM) 99.1% [middle of 4 runs]. The IC50 (curve of compound) was greater than 0.1 µM.

(Values after PubChem BioAssay AID1963963 (Molecular Pharmacology Branch, DTP, NCI, 2024).)
